The target in this assay is BACE1 (Homo sapiens (Human), UniProt P56817). Nature of the assay: Cellular Aβ-lowering assay (Abeta 40 AlphaLISA Assay). In kind it is cell-based. The note with it: HEK293 APP cells, Aβ40 in culture supernatant after 18-20 hrs incubation. As to the method:
Cellular Aβ-Lowering Assay:
The Abeta 40 AlphaLISA Assay can be used. The HEK293 APP cells were seeded in 96 well Microtiter plates in cell culture medium (Iscove's, plus 10% (v/v) fetal bovine serum, penicillin/streptomycin) to about 80% confluency and the compounds were added at a 3× concentration in ⅓ volume of culture medium (final DMSO concentration was kept at 1% v/v). After 18-20 hrs incubation at 37° C. and 5% CO2 in a humidified incubator, the culture supernatants were harvested for the determination of Aβ40 concentrations using Perkin-Elmer Human Amyloid beta 1-40 (high specificity) Kit (Cat# AL275C).
In a Perkin-Elmer White Optiplate-384 (Cat#6007290), 2 ul culture supernatants were combined with 2μl of a 10× AlphaLISA Anti-hAβAcceptor beads+Biotinylated Antibody Anti-Aβ1-40 Mix (50 μg/mL/5 nM). After 1 hour room temperature incubation, 16 μl of a 1.25× preparation of Streptavidin (SA) Donor beads (25 μg/mL) were added and incubated for 30 minutes in the Dark. Light Emission at 615 nm was then recorded using EnVision-Alpha Reader. Levels of Aβ40 in the culture supernatants were calculated as percentage of maximum signal (cells treated with 1% DMSO without inhibitor). The IC50 values were calculated using the Excel XLfit software.

Chain of BACE1 (P56817 46-501): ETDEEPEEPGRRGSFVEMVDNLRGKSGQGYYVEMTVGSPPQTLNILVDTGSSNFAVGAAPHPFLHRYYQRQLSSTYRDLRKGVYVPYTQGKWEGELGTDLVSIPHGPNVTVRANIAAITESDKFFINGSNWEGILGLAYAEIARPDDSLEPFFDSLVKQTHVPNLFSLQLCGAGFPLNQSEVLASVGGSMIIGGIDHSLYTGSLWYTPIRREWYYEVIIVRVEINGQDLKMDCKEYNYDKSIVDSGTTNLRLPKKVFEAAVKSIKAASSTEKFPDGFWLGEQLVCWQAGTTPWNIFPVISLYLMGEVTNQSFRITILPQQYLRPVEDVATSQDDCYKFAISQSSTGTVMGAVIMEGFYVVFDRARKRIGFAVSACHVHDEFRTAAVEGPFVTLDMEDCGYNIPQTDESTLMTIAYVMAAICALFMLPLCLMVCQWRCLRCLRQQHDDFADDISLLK

`CC1(c2cc(NC(=O)c3ccc(C#N)cn3)ccc2F)CS2(=O)=NCCCCN2C(N)=N1` (stereo in doubt) [Example 1, 5-cyano-pyridine-2-carboxylic acid [3-((3RS,4aRS)-1-amino-3-methyl-4a-oxo-3,4,6,7,8,9-hexahydro-4aλ^6-thia-2,5,9a-triaza-benzocyclohepten-3-yl)-4-fluoro-phenyl]-amide] showed an IC50 of 0.045 µM.

In turn, `CC1(c2cc(NC(=O)c3ccc(C#N)cn3)ccc2F)CS2(=O)=NCCCCN2C(N)=N1` (stereo in doubt) [Example 2, 5-cyano-pyridine-2-carboxylic acid [3-((3RS,4aSR)-1-amino-3-methyl-4a-oxo-3,4,6,7,8,9-hexahydro-4aλ^6-thia-2,5,9a-triaza-benzocyclohepten-3-yl)-4-fluoro-phenyl]-amide] returned a concentration for half-maximal inhibition (IC50) of 0.002 µM.

`C[C@@]1(c2cc(NC(=O)c3ncc(C#N)cc3Cl)ccc2F)CS2(=O)=NCCCCN2C(N)=N1` (stereo in doubt) [Example 20, 3-Chloro-5-cyano-pyridine-2-carboxylic acid [3-((3R,4aS)-1-amino-3-methyl-4a-oxo-3,4,6,7,8,9-hexahydro-4aλ^6-thia-2,5,9a-triaza-benzocyclohepten-3-yl)-4-fluoro-phenyl]-amide]: the IC50 was 0.001 µM.

`C[C@@]1(c2cc(NC(=O)c3ccc(OCC(F)(F)F)cn3)ccc2F)CS2(=O)=NCCCCN2C(N)=N1` (stereo in doubt) [Example 21, 5-(2,2,2-Trifluoro-ethoxy)-pyridine-2-carboxylic acid [3-((3R,4aS)-1-amino-3-methyl-4a-oxo-3,4,6,7,8,9-hexahydro-4aλ^6-thia-2,5,9a-triaza-benzocyclohepten-3-yl)-4-fluoro-phenyl]-amide]: the IC50 came out at 0.01 µM.

Take `CC#CCOc1cnc(C(=O)Nc2ccc(F)c([C@]3(C)CS4(=O)=NCCCCN4C(N)=N3)c2)cn1` (stereo in doubt) [Example 22, 5-But-2-ynyloxy-pyrazine-2-carboxylic acid [3-((3R,4aS)-1-amino-3-methyl-4a-oxo-3,4,6,7,8,9-hexahydro-4aλ^6-thia-2,5,9a-triaza-benzocyclohepten-3-yl)-4-fluoro-phenyl]-amide]: inhibition was half-maximal at 0.0002 µM (IC50).

`Cc1cc(F)cnc1C(=O)Nc1ccc(F)c([C@]2(C)CS3(=O)=NCCCCN3C(N)=N2)c1` (stereo in doubt) [Example 23, 5-Fluoro-3-methyl-pyridine-2-carboxylic acid [3-((3R,4aS)-1-amino-3-methyl-4a-oxo-3,4,6,7,8,9-hexahydro-4aλ^6-thia-2,5,9a-triaza-benzocyclohepten-3-yl)-4-fluoro-phenyl]-amide] displayed an IC50 of 0.0015 µM.

In turn, `CC1(c2ccccc2F)CS2(=O)=NCCCCN2C(N)=N1` (stereo in doubt) [Example A20a2, (3RS,4aSR)-3-(2-Fluoro-phenyl)-3-methyl-4a-oxo-3,4,6,7,8,9-hexahydro-4aλ^6-thia-2,5,9a-triaza-benzocyclohepten-1-ylamine] returned an IC50 of 1.04 µM.

In the case of `C[C@@]1(c2cc(-c3cc(-c4ncc(Cl)cn4)no3)ccc2F)C[S@@]2(=O)=NCCCCN2C(N)=N1` [Example 13, (9R,11R)-7-Amino-9-(5-(3-(5-chloropyrimidin-2-yl)isoxazol-5-yl)-2-fluorophenyl)-9-methyl-2,3,4,5,9,10-hexahydro-[1,2,4]thiadiazino[1,2-a][1,2,7]thiadiazepine 11-oxide 2,2,2-trifluoroacetate], the IC50 stood at 0.012 µM.

For the molecule `C[C@@]1(c2cc(-c3cc(-c4ncc(Cl)cn4)no3)ccc2F)C[S@]2(=O)=NCCCCN2C(N)=N1` [Example 14, (9R,11S)-7-Amino-9-(5-(3-(5-chloropyrimidin-2-yl)isoxazol-5-yl)-2-fluorophenyl)-9-methyl-2,3,4,5,9,10-hexahydro-[1,2,4]thiadiazino[1,2-a][1,2,7]thiadiazepine 11-oxide 2,2,2-trifluoroacetate], the IC50 was 0.095 µM.

`C[C@@]1(c2cc(-c3cn(-c4ccc(C#N)cn4)nn3)ccc2F)C[S@]2(=O)=NCCCCN2C(N)=N1` [Example 15, 6-(4-(3-((9R,11S)-7-Amino-9-methyl-11-oxido-2,3,4,5,9,10-hexahydro-[1,2,4]thiadiazino[1,2-a][1,2,7]thiadiazepin-9-yl)-4-fluorophenyl)-1H-1,2,3-triazol-1-yl)nicotinonitrile 2,2,2-trifluoroacetate] had an IC50 of 0.095 µM.

For the molecule `C[C@@]1(c2cc(C#Cc3ccc(C#N)cc3)ccc2F)C[S@@]2(=O)=NCCCCN2C(N)=N1` [Example 16, 4-((3-((9R,11R)-7-amino-9-methyl-11-oxido-2,3,4,5,9,10-hexahydro-[1,2,4]thiadiazino[1,2-a][1,2,7]thiadiazepin-9-yl)-4-fluorophenyl)ethynyl)benzonitrile 2,2,2-trifluoroacetate], the IC50 came out at 0.021 µM.

`COc1cnc(-c2cc(-c3ccc(F)c([C@]4(C)C[S@@]5(=O)=NCCCCN5C(N)=N4)c3)on2)cn1` [Example 17, (9R,11R)-7-Amino-9-(2-fluoro-5-(3-(5-methoxypyrazin-2-yl)isoxazol-5-yl)phenyl)-9-methyl-2,3,4,5,9,10-hexahydro-[1,2,4]thiadiazino[1,2-a][1,2,7]thiadiazepine 11-oxide 2,2,2-trifluoroacetate] came in with an IC50 of 0.009 µM.

`COc1cnc(-c2cc(-c3ccc(F)c([C@]4(C)C[S@]5(=O)=NCCCCN5C(N)=N4)c3)on2)cn1` [Example 18, (9R,11S)-7-amino-9-(2-fluoro-5-(3-(5-methoxypyrazin-2-yl)isoxazol-5-yl)phenyl)-9-methyl-2,3,4,5,9,10-hexahydro-[1,2,4]thiadiazino[1,2-a][1,2,7]thiadiazepine 11-oxide 2,2,2-trifluoroacetate] returned an IC50 of 0.694 µM.

With `C[C@@]1(c2cc(-c3cc(-c4cnc(OCC(F)F)cn4)no3)ccc2F)C[S@@]2(=O)=NCCCCN2C(N)=N1` [Example 19, (9R,11R)-7-Amino-9-(5-(3-(5-(2,2-difluoroethoxy)pyrazin-2-yl)isoxazol-5-yl)-2-fluorophenyl)-9-methyl-2,3,4,5,9,10-hexahydro-[1,2,4]thiadiazino[1,2-a][1,2,7]thiadiazepine 11-oxide 2,2,2-trifluoroacetate], the IC50 came out at 0.014 µM.

In the case of `Cc1cc(C#N)cnc1C(=O)Nc1ccc(F)c([C@]2(C)CS3(=O)=NCC(F)(F)CN3C(N)=N2)c1` (stereo partly drawn) [Example 25, N-(3-((8R)-6-amino-3,3-difluoro-8-methyl-10-oxido-3,4,8,9-tetrahydro-2H-[1,2,6]thiadiazino[1,2-a][1,2,4]thiadiazin-8-yl)-4-fluorophenyl)-5-cyano-3-methylpicolinamide], the IC50 is 0.002 µM.
